± gives the standard deviation of the averaged measurements.
Experiments:
Details in all cases: 72 h
Caco-2 [1] = test: cell viability relative to DMSO; higher = less toxic
HepG2 [2] = test: as above
U2OS [3] = test: as above
Vero E6 [4] = test: as above
Caco-2 [5] = test: relative viability EC50 (midpoint between 100% and the lowest measured viability); higher = less toxic
HepG2 [6] = test: as above
U2OS [7] = test: as above
Vero E6 [8] = test: as above
Caco-2 [9] = test: drug sensitivity score (DSS) for viability; higher = more toxic; extreme values may be limits of the assay
HepG2 [10] = test: as above
U2OS [11] = test: as above
Vero E6 [12] = test: as above
Calu-3 [13] = test: cell viability relative to DMSO; higher = less toxic
Calu-3 [14] = test: drug sensitivity score (DSS) for viability; higher = more toxic; extreme values may be limits of the assay

Row | SMILES | cell viability (Caco-2 [1]; 1 nM) [%] | cell viability (Caco-2 [1]; 10 nM) [%] | cell viability (Caco-2 [1]; 100 nM) [%] | cell viability (Caco-2 [1]; 1000 nM) [%] | cell viability (Caco-2 [1]; 10000 nM) [%] | cell viability (HepG2 [2]; 1 nM) [%] | cell viability (HepG2 [2]; 10 nM) [%] | cell viability (HepG2 [2]; 100 nM) [%] | cell viability (HepG2 [2]; 1000 nM) [%] | cell viability (HepG2 [2]; 10000 nM) [%] | cell viability (U2OS [3]; 1 nM) [%] | cell viability (U2OS [3]; 10 nM) [%] | cell viability (U2OS [3]; 100 nM) [%] | cell viability (U2OS [3]; 1000 nM) [%] | cell viability (U2OS [3]; 10000 nM) [%] | cell viability (Vero E6 [4]; 1 nM) [%] | cell viability (Vero E6 [4]; 10 nM) [%] | cell viability (Vero E6 [4]; 100 nM) [%] | cell viability (Vero E6 [4]; 1000 nM) [%] | cell viability (Vero E6 [4]; 10000 nM) [%] | relative viability EC50 (Caco-2 [5]) [µM] | relative viability EC50 (HepG2 [6]) [µM] | relative viability EC50 (U2OS [7]) [µM] | relative viability EC50 (Vero E6 [8]) [µM] | drug sensitivity score (Caco-2 [9]) | drug sensitivity score (HepG2 [10]) | drug sensitivity score (U2OS [11]) | drug sensitivity score (Vero E6 [12]) | cell viability (Calu-3 [13]; 1 nM) [%] | cell viability (Calu-3 [13]; 10 nM) [%] | cell viability (Calu-3 [13]; 100 nM) [%] | cell viability (Calu-3 [13]; 1000 nM) [%] | cell viability (Calu-3 [13]; 10000 nM) [%] | drug sensitivity score (Calu-3 [14])
1 | CN(c1ccccc1CNc1nc(Nc2ccc3c(c2)CC(=O)N3)ncc1C(F)(F)F)S(C)(=O)=O | 92.4 | 91.6 | 91.5 | 83.8 | 33.6 | 92.8 | 89.9 | 92.9 | 51.5 | 7.2 | 98.2 | 102 | 94.3 | 76.1 | 0.2 | 97 | 88.8 | 81.2 | 65.4 | 10.3 | 1.61 | 0.895 | 1.58 | 1.07 | 6 | 10.9 | 9.2 | 9.6 |  |  |  |  |  | 
2 | Cc1ccc(-c2c(-c3nn(C)c4ncnc(N5CC[C@H](N6CCCCC6)C5)c34)cnn2C)cc1 | 106 | 102 | 106 | 96.1 | 100 |  |  |  |  |  | 104 | 99.5 | 99 | 98.9 | 100 |  |  |  |  |  | > 10 |  | > 10 |  | 0 |  | 0 |  |  |  |  |  |  | 
3 | Cn1cccc1/C=C1\C(=O)NC(=O)c2ccccc21 | 106 | 103 | 108 | 109 | 55.2 | 83.2 | 103 | 72.1 | 83 | 21.2 | 110 | 105 | 106 | 101 | 29.8 | 104 | 108 | 104 | 106 | 71.4 |  | 1.84 | 3.28 |  | 1.8 | 6.5 | 3.7 | 0.9 | 98.6 | 97.5 | 102 | 91 | 69 | 2.7
4 | Cn1ncc(Cl)c1-c1cc(C(=O)N[C@H](CN)Cc2cccc(F)c2)sc1Cl | 83.6 | 85.6 | 95.3 | 79.7 | 71 | 86.8 | 101 | 96.7 | 93.8 | 84.7 | 97.2 | 95.6 | 97.9 | 94.1 | 89.2 | 91.8 | 101 | 91.5 | 93.6 | 100 | > 10 | > 10 | > 10 | > 10 | 0 | 0 | 0 | 0 | 98 | 97.6 | 104 | 89.7 | 63.6 | 3.3
5 | NCC1OC(C23CC4CC(CC(C4)C2)C3)Cc2c1ccc(O)c2O (stereo not drawn) | 114 | 86.9 | 94.3 | 85.1 | 54.4 | 101 | 95.9 | 103 | 101 | 26.5 | 102 | 100 | 99 | 94.9 | 92.5 | 94 | 97.3 | 96 | 100 | 58.8 |  | 3.26 | > 10 |  | 4 | 4 | 0 | 2 | 106 | 98.1 | 100 | 94.2 | 65.3 | 2.6
6 | O=C(NOCCO)c1cc(CN2OCCCC2=O)c(F)c(F)c1Nc1ccc(I)cc1F | 88.1 | 76.9 | 67.9 |  | 68.2 | 100 | 70 | 34 | 19 | 21.6 | 97.2 | 92.9 | 90.1 | 87.4 | 43.7 | 89.3 | 85.2 | 61.2 | 50.7 | 50.4 |  |  |  |  | 13.5 | 26.2 | 4.9 | 15 | 96 | 92.1 | 61.7 | 43.4 | 32.7 | 15.9
7 | COc1cc2c(cc1O)CC[C@@H]1[C@@H]2CC[C@]2(C)[C@@H](O)CC[C@@H]12 [2-methoxyestradiol] | 99.1 | 105 | 101 | 77.4 | 58.1 | 96.1 | 99.9 | 91.7 | 115 | 33.8 | 96.4 | 95.1 | 102 | 77.8 | 46.5 | 99.6 | 97.8 | 98.9 | 94.8 | 36.2 |  | 3.99 | 1.15 | 2.5 | 4.9 | 2.8 | 5.9 | 4.3 | 103 | 107 | 106 | 98.9 | 60.2 | 2.1
8 | O=C(O)CCC(=O)C(=O)O [2-oxoglutaric-acid] | 95.3 | 97.7 | 95 | 94.2 | 91.5 | 97.9 | 94.3 | 91.4 | 98.8 | 105 | 98.5 | 99.5 | 95.2 | 98.7 | 99.3 | 97.8 | 104 | 98.3 | 104 | 102 | > 10 | > 10 | > 10 | > 10 | 0 | 0 | 0 | 0 |  |  |  |  |  | 
9 | COc1ccc(S(=O)(=O)Nc2cccnc2Nc2ccc(O)cc2)cc1 [ABT-751] | 100 | 89.6 | 86.3 | 53.7 | 42.4 | 101 | 108 | 105 | 45.1 | 35.2 | 103 | 99.4 | 104 | 57.5 | 26.4 | 102 | 98.9 | 93.3 | 29.8 | 27.9 | 0.26 | 0.521 | 0.884 | 0.248 | 10.1 | 10 | 9.2 | 14.2 | 108 | 87.3 | 94 | 69.4 | 55.8 | 6.2
10 | COc1cc(-c2ncn(/C=C\C(=O)OC(C)C)n2)cc(C(F)(F)F)c1 [KPT-185] | 94.7 | 96.5 | 92.2 | 57 | 38.9 | 105 | 100 | 84.3 | 29.1 | 23.9 | 98.1 | 93.7 | 89.5 | 11.3 | 4.1 | 97.1 | 102 | 96.4 | 41.8 | 20 | 0.48 | 0.218 | 0.284 | 0.573 | 9 | 15.1 | 17.6 | 11.6 | 99.4 | 91.1 | 81.8 | 55.6 | 51.9 | 10
11 | Cc1cc(C)cc(C(=O)NOCCCCCC(=O)NO)c1 [LMK-235] | 107 | 86.9 | 96.4 | 60.3 | 0.9 | 95.1 | 93.3 | 79.4 | 34.4 | 0.3 | 95.9 | 91.3 | 90.4 | 49.3 | 1.9 | 95.3 | 102 | 96.1 | 39.8 | -0.1 | 1.22 | 0.441 | 0.884 | 0.777 | 10.4 | 15.1 | 11.6 | 12.7 |  |  |  |  |  | 
12 | CCOC(=O)c1ccc(N2NC(=O)/C(=C/c3ccc([N+](=O)[O-])o3)C2=O)cc1 [PYR-41] | 96 | 100 | 95.1 | 85 | 71.2 | 112 | 99.7 | 94.4 | 105 | 84.9 | 93.5 | 98.3 | 101 | 93.4 | 75.5 | 103 | 103 | 99.2 | 101 | 85.7 |  | > 10 | > 10 | > 10 | 2.6 | 0.1 | 1.8 | 0.1 | 85.5 | 101 | 92.2 | 71.6 | 62 | 5.7
13 | COc1cc(/C=C/c2ccc(OC)cc2OC)cc(OC)c1 [TMS] | 86.4 | 97.6 | 81.6 | 92.4 | 55.5 | 98.7 | 94.7 | 96.1 | 91.5 | 46.2 | 98.8 | 107 | 94.1 | 101 | 52.5 | 93.6 | 95.5 | 94.7 | 91.3 | 35 |  | 1.94 |  | 2.08 | 4.2 | 4.3 | 2.4 | 5 | 97 | 99.6 | 92.6 | 106 | 62.8 | 1.4
14 | C/C(=N\Nc1nnc2c(n1)[nH]c1c(C)cccc12)c1ccccn1 [VLX600] | 95.5 ± 6 | 101 ± 1.6 | 98.1 ± 4.1 | 20.2 ± 5.8 | 21 ± 2.1 | 102 ± 2.3 | 107 ± 10 | 103 ± 11 | 17.9 ± 6 | 23.6 ± 1.6 | 100 ± 3.2 | 99.6 ± 9.3 | 98.9 | 34.3 ± 6.7 | 27 ± 0.99 | 101 ± 6 | 100.5 ± 0.49 | 104 ± 2.5 | 21.6 ± 15 | 4.95 ± 1.2 | 0.32 | 0.319 | 0.418 | 0.525 | 14.8 ± 0.35 | 14.85 ± 0.071 | 12.2 ± 1.3 | 14.6 ± 2.2 |  |  |  |  |  | 
15 | CC#CC(=O)N1CCC[C@H]1c1nc(-c2ccc(C(=O)Nc3ccccn3)cc2)c2c(N)nccn12 [acalabrutinib] | 92.1 | 101 | 99.4 | 90.5 | 97.8 | 95.9 | 96.7 | 95 | 103 | 102 | 99.3 | 95.6 | 105 | 95.3 | 102 | 91.4 | 99.7 | 93.1 | 96.7 | 98.2 | > 10 | > 10 | > 10 | > 10 | 0 | 0 | 0 | 0 | 99.5 | 89.1 | 84.2 | 67.8 | 65.3 | 7.3
